Laboratory results published in PubChem BioAssay (NCI).
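Interpolation was linear, between the two tested concentrations surrounding the appropriate level; five concentrations were tested over 48 hours in 96-well plates. TGI marks complete inhibition of growth.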

Experiments:
Test in all cases: NCI-60 cell line screen, 48 h
[1] = system: A498 renal
[2] = system: COLO 205 colon
[3] = system: HL-60(TB) leukemia
[4] = system: HOP-62 NSCLC
[5] = system: HOP-92 NSCLC
[6] = system: MDA-N
[7] = system: NCI/ADR-RES ovarian
[8] = system: PC-3 prostate
[9] = system: RXF 393 renal
[10] = system: SF-295 CNS
[11] = system: SN12C renal

| SMILES | TGI [1] [µM] | TGI [2] [µM] | TGI [3] [µM] | TGI [4] [µM] | TGI [5] [µM] | TGI [6] [µM] | TGI [7] [µM] | TGI [8] [µM] | TGI [9] [µM] | TGI [10] [µM] | TGI [11] [µM] |
| --- | --- | --- | --- | --- | --- | --- | --- | --- | --- | --- | --- |
| CC1=CCC([C@@](C)(O)CCCC(C)(C)N=C=S)CC1 (stereo not given in full) | 28.7 | 30.2 | 43.8 | 40 | 33.1 | 32.4 | 38.9 | 33 | 29.6 | 36.3 | 35.6 |
| CC(c1ccccc1)N1CCN(C(C)c2ccccc2)CC1 (stereo not given) | > 100 |  | > 100 | > 100 | > 100 | > 100 | > 100 | > 100 | > 100 | > 100 | > 100 |
| Nc1ccc(N=Nc2c(S(=O)(=O)O)cc3ccccc3c2S(=O)(=O)O)cc1 | > 100 |  |  | > 100 | > 100 | > 100 | > 100 | > 100 | > 100 | > 100 | > 100 |
| COC(=O)/C=C\C(C#N)(C#N)N=Cc1ccc(C)cc1 | 31.8 | 4.56 | 8.14 | 34.2 | 3.6 | 14 | 10.9 | 15.2 | 3.9 | 51 | 29.8 |
| O=S(=O)(O)C(CO)c1ccccc1 (stereo not given) (tested in a mixture with another compound) | > 100 | > 100 | > 44.5 | > 100 | > 100 | > 100 | > 100 | > 100 | > 100 | > 100 | > 100 |
| COc1ccc(N2C(=O)CC(=O)N(NC(=O)C(C)Oc3ccccc3C)C2=S)cc1 (stereo not given) | > 100 | > 100 | > 100 | > 100 | > 100 | > 100 | > 100 | > 100 | > 100 | > 100 | > 100 |
| O=C(O)CN1CCN2CCCCCN(CC1)CCN(CC(=O)O)CC2 | > 100 | > 100 | 33.4 | > 100 | > 100 | > 100 | > 100 | > 100 |  | > 100 | > 100 |
| O=C1NC2c3c(I)sc(I)c3C(O)C2O1 (stereo not given) | > 100 | > 100 | > 100 | > 100 | > 100 | > 100 | > 100 | > 100 | > 100 | > 100 | > 100 |
| CCCNc1ncnc2c1ncn2C | 95.1 | > 100 | 96.3 | > 100 | > 100 | > 100 | > 100 | > 100 | > 100 | > 100 | 98.2 |
| S=C1NC2=C(CSC/C2=C\c2cccc(Br)c2)C(c2cccc(Br)c2)N1 (stereo not given) | > 100 | > 100 | > 100 | > 100 |  | > 100 | > 100 | > 100 | > 100 | > 100 | > 100 |
